In US20180370927A1, “MICROBIOCIDAL OXADIAZOLE DERIVATIVES” (SYNGENTA PARTICIPATIONS AG, priority 2015, published 2018):

What was measured:
[1] = test system: Glomerella lacenarium (Colletotrichum lacenarium); assay: Glomerella lacenarium (Colletotrichum lacenarium) liquid culture / cucumber / preventative (anthracnose); assay type: cell-based; settings: 20 ppm in the applied formulation, liquid culture in PDB, 24° C., 3 to 4 days after application, read-out: disease control (inhibition of growth, photometric) compared to untreated control
Method in brief: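 Cryostored conidia in potato dextrose broth added to DMSO compound solution in microtiter plates, incubated at 24° C. Growth inhibition read photometrically 3 to 4 days after application, as percent control versus untreated check; compounds tested at 20 ppm.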

[2] = test system: Puccinia recondita f. Sp. Tritici; assay: Puccinia recondita f. sp. tritici / wheat / leaf disc curative (brown rust); assay type: in vivo; settings: foliar, 200 ppm in the applied formulation, wheat leaf segments, curative (applied 1 day after inoculation), assessed 6 to 8 days after application, read-out: disease control compared to untreated control leaf disks
Method in brief: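 Wheat cv. Kanzler leaf segments on agar were inoculated with spores, kept dark at 19° C, 75% RH, then sprayed with diluted formulated compound 1 day after inoculation (curative). Incubation continued at 19° C, 75% RH, 12 h light/12 h dark, with percent disease control versus untreated scored 6 to 8 days after application.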

[3] = test system: Puccinia recondita f. Sp. Tritici; assay: Puccinia recondita f. sp. tritici / wheat / leaf disc preventative (brown rust); assay type: in vivo; settings: foliar, 200 ppm in the applied formulation, wheat leaf segments, preventative, assessed 7 to 9 days after application, read-out: disease control compared to untreated control leaf disks
Method in brief: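 Wheat cv. Kanzler leaf segments on agar sprayed with formulated compound in water, inoculated with rust spores 1 day later. Incubated at 19° C, 75% rh, 12 h light/12 h dark; percent disease control versus untreated scored 7 to 9 days after application; tested at 200 ppm.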

Phakopsora pachyrhizi = Phakopsora pachyrhizi / soybean / leaf disc preventative (Asian soybean rust); assay type: in vivo; settings: foliar, 200 ppm in the applied formulation, soybean leaf disks, assessed 12 to 14 days after application, read-out: disease control compared to untreated control leaf disks
Method in brief: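 Soybean leaf discs on water agar were sprayed with formulated compound diluted in water, then inoculated one day later with spore suspension on the lower leaf surface. Held 24-36 h dark at 20° C., 75% RH, then 12 h light/day; percent disease control versus untreated scored 12 to 14 days after application.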

CON(C)C(=O)C(=O)N(C)Cc1ccc(-c2noc(C(F)(F)F)n2)cc1 [Compound 4.104, N′-methoxy-N,N′-dimethyl-N-[[4-[5-- (trifluoromethyl)-1,2,4-oxadiazol-3-yl]phenyl]methyl] oxamide]
≥ 80%: inhibition at 20 ppm [1] | pest or weed control at 200 ppm [2] | pest or weed control at 200 ppm [3] | pest or weed control at 200 ppm (Phakopsora pachyrhizi)

CC(=O)C(=O)N(C)Cc1ccc(-c2noc(C(F)(F)F)n2)cc1 [Compound 1.20, N-methyl-2-oxo-N-[[4-[5-(trifluoromethyl)-1,2,4-oxadiazol-3-yl]phenyl]methyl]propanamide]
≥ 80%: inhibition at 20 ppm [1] | pest or weed control at 200 ppm [2] | pest or weed control at 200 ppm [3] | pest or weed control at 200 ppm (Phakopsora pachyrhizi)

O=C(NCc1ccc(-c2noc(C(F)(F)F)n2)cc1)C(=O)N1CCOCC1 [Compound 4.59, 2-morpholino-2-oxo-N-[[4-[5-(trifluoromethyl)-1,2,4-oxadiazol-3-yl]phenyl]methyl] acetamide]
≥ 80%: inhibition at 20 ppm [1] | pest or weed control at 200 ppm [2] | pest or weed control at 200 ppm [3] | pest or weed control at 200 ppm (Phakopsora pachyrhizi)

CON(Cc1ccc(-c2noc(C(F)(F)F)n2)cc1)C(=O)C(=O)c1ccccc1 [Compound 1.76, N-methoxy-2-oxo-phenyl-N-[[4-[5-(trifluoromethyl)-1,2,4-oxadiazol-3-yl]phenyl]methyl]acetamide]
≥ 80%: inhibition at 20 ppm [1] | pest or weed control at 200 ppm [2] | pest or weed control at 200 ppm [3] | pest or weed control at 200 ppm (Phakopsora pachyrhizi)

CC(=O)C(=O)NCc1c(F)cc(-c2noc(C(F)(F)F)n2)cc1F [Compound 1.87, N-[[2,6-difluoro-4-[5-(trifluoromethyl)-1,2,4-oxadiazol-3-yl]phenyl]methyl]-2-oxo-propanamide]
≥ 80%: inhibition at 20 ppm [1] | pest or weed control at 200 ppm [2] | pest or weed control at 200 ppm [3] | pest or weed control at 200 ppm (Phakopsora pachyrhizi)

CC(C)(C)C(=O)C(=O)NCc1ccc(-c2noc(C(F)(F)F)n2)c(F)c1 [Compound 1.45, N-[[3-fluoro-4-[5-(trifluoromethyl)-1,2,4-oxadiazol-3-yl]phenyl]methyl]-3,3-dimethyl-2-oxo-butanamide]
≥ 80%: inhibition at 20 ppm [1] | pest or weed control at 200 ppm [2] | pest or weed control at 200 ppm [3] | pest or weed control at 200 ppm (Phakopsora pachyrhizi)

CCN(Cc1ccc(-c2noc(C(F)(F)F)n2)cc1)C(=O)C(N)=O [Compound 4.28, N′-ethyl-N′-[[4-[5-(trifluoromethyl)-1,2,4-oxadiazol-3-yl]phenyl]methyl] oxamide]
≥ 80%: inhibition at 20 ppm [1] | pest or weed control at 200 ppm [2] | pest or weed control at 200 ppm [3] | pest or weed control at 200 ppm (Phakopsora pachyrhizi)

O=C(NCc1ccc(-c2noc(C(F)(F)F)n2)cc1)C(=O)c1cccs1 [Compound 1.51, 2-oxo-2-(2-thienyl)-N-[[4-[5-(trifluoromethyl)-1,2,4-oxadiazol-3-yl]phenyl]methyl]acetamide]
≥ 80%: inhibition at 20 ppm [1] | pest or weed control at 200 ppm [2] | pest or weed control at 200 ppm [3] | pest or weed control at 200 ppm (Phakopsora pachyrhizi)

CCN(C)C(=O)C(=O)N(Cc1ccc(-c2noc(C(F)(F)F)n2)cc1)OC [Compound 4.73, N-ethyl-N′-methoxy-N-methyl-N′-[[4-[5-(trifluoromethyl)-1,2,4-oxadiazol-3-yl]phenyl]methyl] oxamide]
≥ 80%: inhibition at 20 ppm [1] | pest or weed control at 200 ppm [2] | pest or weed control at 200 ppm [3] | pest or weed control at 200 ppm (Phakopsora pachyrhizi)

CC(=O)C(=O)N(Cc1ccc(-c2noc(C(F)(F)F)n2)cc1)C1CC1 [Compound 1.91, N-cyclopropyl-2-oxo-N-[[4-[5-(trifluoromethyl)-1,2,4-oxadiazol-3-yl]phenyl]methyl]propanamide]
≥ 80%: inhibition at 20 ppm [1] | pest or weed control at 200 ppm [2] | pest or weed control at 200 ppm [3] | pest or weed control at 200 ppm (Phakopsora pachyrhizi)

CN(C)C(=O)C(=O)NCc1ccc(-c2noc(C(F)(F)F)n2)cc1Cl [Compound 4.96, N-[[2-chloro-4-[5-(trifluoromethyl)-1,2,4-oxadiazol-3-yl]phenyl]methyl]-N′,N′-dimethyl-oxamide]
≥ 80%: inhibition at 20 ppm [1] | pest or weed control at 200 ppm [2] | pest or weed control at 200 ppm [3] | pest or weed control at 200 ppm (Phakopsora pachyrhizi)

CON(Cc1ccc(-c2noc(C(F)(F)F)n2)cc1)C(=O)C(C)=O [Compound 1.36, N-methoxy-2-oxo-N-[[4-[5-(trifluoromethyl)-1,2,4-oxadiazol-3-yl]phenyl]methyl]propanamide]
≥ 80%: inhibition at 20 ppm [1] | pest or weed control at 200 ppm [2] | pest or weed control at 200 ppm [3] | pest or weed control at 200 ppm (Phakopsora pachyrhizi)

CCN(C)C(=O)C(=O)NCc1ccc(-c2noc(C(F)(F)F)n2)cc1 [Compound 4.54, N′-ethyl-N′-methyl-N-[[4-[5-(trifluoromethyl)-1,2,4-oxadiazol-3-yl]phenyl]methyl] oxamide]
≥ 80%: inhibition at 20 ppm [1] | pest or weed control at 200 ppm [2] | pest or weed control at 200 ppm [3] | pest or weed control at 200 ppm (Phakopsora pachyrhizi)

C#CCN(Cc1ccc(-c2noc(C(F)(F)F)n2)cc1)C(=O)C(=O)CCC [Compound 1.5, 2-oxo-N-prop-2-ynyl-N-[[4-[5-(trifluoromethyl)-1,2,4-oxadiazol-3-yl]phenyl]methyl]pentanamide]
≥ 80%: inhibition at 20 ppm [1] | pest or weed control at 200 ppm [2] | pest or weed control at 200 ppm [3] | pest or weed control at 200 ppm (Phakopsora pachyrhizi)

CCCN(Cc1ccc(-c2noc(C(F)(F)F)n2)cc1)C(=O)C(=O)CC [Compound 1.31, 2-oxo-N-propyl-N-[[4-[5-(trifluoromethyl)-1,2,4-oxadiazol-3-yl]phenyl]methyl]butanamide]
≥ 80%: inhibition at 20 ppm [1] | pest or weed control at 200 ppm [2] | pest or weed control at 200 ppm [3] | pest or weed control at 200 ppm (Phakopsora pachyrhizi)

CCC(=O)C(=O)NCc1ccc(-c2noc(C(F)(F)F)n2)cc1Cl [Compound 1.64, N-[[2-chloro-4-[5-(trifluoromethyl)-1,2,4-oxadiazol-3-yl]phenyl]methyl]-2-oxo-butanamide]
≥ 80%: inhibition at 20 ppm [1] | pest or weed control at 200 ppm [2] | pest or weed control at 200 ppm [3] | pest or weed control at 200 ppm (Phakopsora pachyrhizi)

CCC(=O)C(=O)NCc1ccc(-c2noc(C(F)(F)F)n2)c(F)c1 [Compound 1.78, N-[[3-fluoro-4-[5-(trifluoromethyl)-1,2,4-oxadiazol-3-yl]phenyl]methyl]-2-oxo-butanamide]
≥ 80%: inhibition at 20 ppm [1] | pest or weed control at 200 ppm [2] | pest or weed control at 200 ppm [3] | pest or weed control at 200 ppm (Phakopsora pachyrhizi)

O=C(NCc1ccc(-c2noc(C(F)(F)F)n2)cc1F)C(=O)c1ccco1 [Compound 1.77, N-[[2-fluoro-4-[5-(trifluoromethyl)-1,2,4-oxadiazol-3-yl]phenyl]methyl]-2-(2-furyl)-2-oxo-acetamide]
≥ 80%: inhibition at 20 ppm [1] | pest or weed control at 200 ppm [2] | pest or weed control at 200 ppm [3] | pest or weed control at 200 ppm (Phakopsora pachyrhizi)

C=CCN(Cc1ccc(-c2noc(C(F)(F)F)n2)cc1)C(=O)C(=O)N(C)C [Compound 4.25, N′-allyl-N,N-dimethyl-N′-[[4-[5-(trifluoromethyl)-1,2,4-oxadiazol-3-yl]phenyl]methyl] oxamide]
≥ 80%: inhibition at 20 ppm [1] | pest or weed control at 200 ppm [2] | pest or weed control at 200 ppm [3] | pest or weed control at 200 ppm (Phakopsora pachyrhizi)

CCC(=O)C(=O)N(C)Cc1ccc(-c2noc(C(F)(F)F)n2)cc1 [Compound 1.98, N-methyl-2-oxo-N-[[4-[5-(trifluoromethyl)-1,2,4-oxadiazol-3-yl]phenyl]methyl]butanamide]
≥ 80%: inhibition at 20 ppm [1] | pest or weed control at 200 ppm [2] | pest or weed control at 200 ppm [3] | pest or weed control at 200 ppm (Phakopsora pachyrhizi)
